Results reported in paper PMC4961418, “A Selective Irreversible Inhibitor of Furin Does Not Prevent Pseudomonas Aeruginosa Exotoxin A-Induced Airway Epithelial Cytotoxicity” (PLoS ONE, 2016).
Side chains are listed from the residue outwards. Peptide text beside a SMILES is read from it. * marks the point of attachment. Biotin = O=C1N[C@H]2[C@H](CS[C@H]2CCCCC(=O)*)N1; X1 = N=C(N)NCCCC(N*)P(=O)(Oc1ccccc1)Oc1ccccc1; Palmitoyl = CCCCCCCCCCCCCCCC(=O)*; Ahx = NCCCCCC(=O)O

Assays:
matriptase = target: T1, matriptase (Homo sapiens, UniProt Q9Y5Y6); experiment: Fluorogenic protease activity assay, matriptase; assay type: biochemical; details: 10 μM inhibitor, Boc-Gln-Ala-Arg-NH2Mec 50 μM, N = 3
T1 construct: purchased R&D Systems
T1 sequence (Q9Y5Y6 1-855): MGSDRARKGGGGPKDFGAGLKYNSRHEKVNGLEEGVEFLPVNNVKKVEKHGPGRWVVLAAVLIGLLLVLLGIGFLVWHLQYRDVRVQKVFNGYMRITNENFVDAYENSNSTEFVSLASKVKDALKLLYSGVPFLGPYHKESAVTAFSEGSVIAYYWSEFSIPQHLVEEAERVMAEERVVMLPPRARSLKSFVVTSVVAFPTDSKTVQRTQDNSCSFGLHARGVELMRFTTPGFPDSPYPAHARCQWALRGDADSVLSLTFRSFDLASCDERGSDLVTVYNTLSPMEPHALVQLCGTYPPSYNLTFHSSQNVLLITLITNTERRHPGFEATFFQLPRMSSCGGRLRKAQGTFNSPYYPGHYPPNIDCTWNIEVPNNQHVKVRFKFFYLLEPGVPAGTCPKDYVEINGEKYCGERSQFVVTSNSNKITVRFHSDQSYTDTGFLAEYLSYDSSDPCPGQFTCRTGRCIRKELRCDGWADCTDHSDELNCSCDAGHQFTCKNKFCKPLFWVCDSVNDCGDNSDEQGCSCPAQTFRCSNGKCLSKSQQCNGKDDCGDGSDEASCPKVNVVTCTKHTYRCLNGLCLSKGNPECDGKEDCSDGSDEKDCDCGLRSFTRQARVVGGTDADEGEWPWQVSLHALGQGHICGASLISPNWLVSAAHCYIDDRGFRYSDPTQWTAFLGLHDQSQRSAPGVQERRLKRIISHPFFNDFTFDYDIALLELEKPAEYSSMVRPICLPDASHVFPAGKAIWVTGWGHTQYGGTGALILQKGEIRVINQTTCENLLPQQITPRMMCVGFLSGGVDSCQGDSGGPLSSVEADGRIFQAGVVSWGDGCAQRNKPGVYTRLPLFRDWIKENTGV
Source text: (§1) Recombinant human enzymes were sourced as follows: furin and matriptase (R&D Systems); prostasin (Sino Biological); trypsin and chymotrypsin (Sigma-Aldrich); factor Xa and neutrophil elastase (Merck Millipore) and proteinase-3 and cathepsin G (Elastin Products, Missouri). Fluorogenic substrates were sourced as follows: p-Glu-Arg-Thr-Lys-Arg-NH2Mec and Boc-Gln-Ala-Arg-NH2Mec (R&D Systems); Boc-Ile-Glu-Gly-Arg-NH2Mec (Bachem); Z-Gly-Gly-Arg-NH2Mec, MeOSuc-Ala-Ala-Pro-Val-NH2Mec and Suc-Ala-Ala-Pro-Phe-NH2Mec (Sigma-Aldrich). All chemicals and reagents for the synthesis of QUB-F1 were supplied by Sigma-Aldrich unless otherwise indicated. Fmoc-Lys(Boc)-SASRIN resin was sourced from Bachem. Fmoc-protected amino acids and HCTU were supplied by Merck Millipore.
(§2) Recombinant protease activities were assessed using the cognate fluorogenic substrates (final concentration 50 μM) as follows: trypsin (Z-Gly-Gly-Arg-NH2Mec), prostasin and matriptase (Boc-Gln-Ala-Arg-NH2Mec), factor Xa (Boc-Ile-Glu-Gly-Arg-NH2Mec), neutrophil elastase and proteinase 3 (MeO-Suc-Ala-Ala-Pro-Val-NH2Mec), chymotrypsin and cathepsin G (Suc-Ala-Ala-Pro-Phe-NH2Mec). The rate of substrate hydrolysis in the presence or absence of furin inhibitors was assessed by continuous recording at λex 360 nm, λem 480 nm, over a period of 60 minutes using a FLUOstar Optima microplate reader (BMG Labtech). […]

cathepsin G = target: T2, cathepsin G (Homo sapiens, UniProt P08311); experiment: Fluorogenic protease activity assay, cathepsin G; assay type: biochemical; details: 10 μM inhibitor, Suc-Ala-Ala-Pro-Phe-NH2Mec 50 μM, N = 3
T2 construct: purchased Elastin Products, Missouri
T2 sequence (P08311 21-255): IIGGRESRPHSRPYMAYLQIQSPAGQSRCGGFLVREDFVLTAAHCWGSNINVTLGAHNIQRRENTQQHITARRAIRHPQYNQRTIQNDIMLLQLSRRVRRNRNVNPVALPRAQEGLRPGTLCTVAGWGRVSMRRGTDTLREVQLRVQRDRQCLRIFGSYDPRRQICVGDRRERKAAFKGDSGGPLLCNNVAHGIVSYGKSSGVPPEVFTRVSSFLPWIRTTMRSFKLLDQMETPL
Source text: as §1, §2

**Q.** What does the source list for CCCCCCCCCCCCCCCC(=O)N[C@@H](CCCCNC(=O)CCCCCNC(=O)CCCC[C@@H]1SC[C@@H]2NC(=O)N[C@@H]21)C(=O)N[C@@H](CCCNC(=N)N)C(=O)N[C@H](C(=O)N[C@@H](CCCCN)C(=O)NC(CCCNC(=N)N)P(=O)(Oc1ccccc1)Oc1ccccc1)C(C)C (stereo partly drawn) [QUB-F1, N^α-Pal-N^ω-(Biotinyl-Ahx)-Lys-RVKR^P(OPh)2] (Palmitoyl-K([Ahx-Biotin])RVK-X1)?
**A.** inhibition of matriptase (matriptase): did not; inhibition of cathepsin G (cathepsin G): Neither compound was found to inhibit
